The subject of assay [1] is platelet aggregation induced by ADP. The assay is described as follows: Platelet Aggregation-Inhibition Action 2 (ADP-induced, platelet-rich plasma). It is filed as cell-based. The following applies: ADP 1-3 μM final, PRP, compound added one minute before ADP. The procedure: Platelet Aggregation-Inhibition Action 2
(§1) Blood collected from medial cubital vein is centrifuged at 800 rmp for 10 minutes and the upper portion of the resultant is collected as platelet-rich plasma PRP). The PRP is dividedly poured into small test tubes and ADP is added thereto (final concentration: 1-3 μM) so as to induce platelet aggregation. The degree of platelet aggregation is measured in terms of change in turbidity by a platelet aggregation measuring apparatus Hematoracer, NIKO BIOSCIENCE). The compound is added one minute before the addition of ADP the concentration of the compound at which the aggregation is inhibited by 50% is calculated as IC50 value.

Assay [2] has as its system platelet aggregation induced by TXA2 agonist U-46619. The assay is described as follows: Platelet Aggregation-inhibition Action 1 (U-46619-induced, platelet-rich plasma). It is filed as cell-based. The following applies: U-46619 1-4 μM final, PRP, compound added one minute before U-46619. On the procedure:
Platelet Aggregation-inhibition Action 1
as §1, with “plasma (PRP).” for “plasma PRP).”, “and a TXA2 agonist U-46619” for “and ADP”, “concentration: 1-4” for “concentration: 1-3”, “apparatus (Hematoracer,” for “apparatus Hematoracer,”, “of U-46619 and” for “of ADP”

One may read the IC50 as the concentration that gives 50% inhibition. Higher therefore signals lower potency.

Regarding `O=C(O)COc1cccc2c(COCC(c3ccccc3)c3ccccc3)coc12` [Example 49, (3-((2,2-diphenylethoxy)methyl)benzofuran-7-yloxy)acetic acid], the 50% inhibitory concentration (IC50) in assay [1] turned out to be 8200 nM. Consider `O=C(O)COc1cccc2c1ccn2CCSC(c1ccccc1)c1ccccc1` [Example 112, (1-(2-(diphenylmethylthio)ethyl)indole-4-yloxy)acetate], for which the figures for the IC50 in assay [2] and in assay [1] were 840 nM and 4500 nM, respectively.

In the case of `O=C(O)COc1cccc2c(COCCOC(c3ccccc3)c3ccccc3)coc12` [Example 59, (3-((2-(diphenylmethoxy)ethoxy)methyl)benzofuran-7-yloxy)acetic acid], the values for the IC50 in assay [2] and in assay [1] were 330 nM and 600 nM, respectively. The like results for `O=C(O)COc1cccc2c1CCN2CCOCC(c1ccccc1)c1ccccc1` [Example 122, (1-(2-(2,2-diphenylethoxy)ethyl)indoline-4-yloxy)acetic acid] were, in that order, 1400 nM and 2700 nM. Turning to `O=C(O)COc1cccc2c(COCC=C(c3ccccc3)c3ccccc3)coc12` [Example 94, (3-((3,3-diphenyl-2-propenyloxy)methyl)benzofuran-7-yloxy)acetic acid], the IC50 in assay [2] turned out to be 710 nM. As to `O=C(O)COc1cccc2c(CCSC(c3ccccc3)c3ccccc3)c(CCO)oc12` [Example 85], the IC50 in assay [2] came out at 620 nM; in assay [1] it was 750 nM. In assay [1], `O=C(O)COc1cccc2c(CCCSC(c3ccccc3)c3ccccc3)coc12` [Example 91, (3-(3,3-diphenylmethylthiopropyl)benzofuran-7-yloxy)acetic acid] yielded an IC50 of 1900 nM. In the case of `O=C(O)COc1cccc2c1CCN2CCSC(c1ccccc1)c1ccccc1` [Example 125, (1-(2-(diphenylmethylthio)ethyl)indoline-4-yloxy)acetic acid], the IC50 in assay [2] was 720 nM; in assay [1], 3100 nM. Consider `O=C(O)COc1cccc2cc(COCCOC(c3ccccc3)c3ccccc3)oc12` [Example 130, (2-(2-diphenylmethoxyethoxymethyl)benzofuran-7-yloxy)acetic acid], for which, in assay [2], the IC50 was 18000 nM.

As to `O=C(O)COc1cccc2c1ccn2CCOCC(c1ccccc1)c1ccccc1` [Example 109, (1-(2-(2,2-diphenylethoxy)ethyl)indole-4-yloxy)acetic acid], half-maximal inhibition in assay [1] (IC50) was put at 27900 nM. On to `Cc1oc2c(OCC(=O)O)cccc2c1CCSC(c1ccccc1)c1ccccc1` [Example 81, (3-(2-(diphenylmethylthio)ethyl)-2-methylbenzofuran-7-yloxy)acetic acid], for which the IC50 turned out to be 640 nM in assay [2] and 4500 nM in assay [1]. `O=C(O)COc1cccc2c(CNS(=O)(=O)CCOc3ccccc3)coc12` [Example 4] came in with an IC50 in assay [2] of 1100 nM.

As to `C[C@H](COC(c1ccccc1)c1ccccc1)OCc1coc2c(OCC(=O)O)cccc12` [Example 97, (R)-(3-((2-(diphenylmethoxy)-1-methylethoxy)methyl)benzofuran-7-yloxy)acetic acid], the IC50 in assay [2] stood at 1600 nM; in assay [1], 3400 nM. `O=C(O)COc1cccc2c(CC(O)CCC(c3ccccc3)c3ccccc3)coc12` (stereo not shown) [Example 101, (3-(2-hydroxy-5,5-diphenylpentyl)benzofuran-7-yloxy)acetic acid]: the IC50 in assay [2] stood at 1500 nM; in assay [1], 1800 nM.

Consider `O=C(O)COc1cccc2c(CCSC(c3ccccc3)c3ccccc3)c(CO)oc12` [Example 83, (2-hydroxymethyl-3-(2-(diphenylmethylthio)ethyl)benzofuran-7-yloxy)acetic acid], for which the figures for the IC50 in assay [2] and in assay [1] were 460 nM and 3300 nM, respectively. The like results for `O=C(O)COc1cccc2c(CNS(=O)(=O)CCc3ccccc3)coc12` [Example 8, (3-(((2-phenylethyl)sulfonylamino)methyl)benzofuran-7-yloxy)acetic acid] were, in that order, 1000 nM and 305000 nM. Regarding `O=C(O)COc1cccc2c(CCSCC(c3ccccc3)c3ccccc3)coc12` [Example 88, (3-(2-(2,2-diphenylethylthio)ethyl)benzofuran-7-yloxy)acetic acid], the values for the IC50 in assay [2] and in assay [1] were 510 nM and 730 nM, respectively.

The values above are taken from US6323235A, “Benzene-condensed heterocyclic derivatives and their uses” (priority 1995, dated 2001).
